Data taken from the supplement of paper PMC8253809.

Key:
[1] = tested on: DIPGX37 (H3.3 K27M diffuse intrinsic pontine glioma line); assay: EC50 (inflection of fitted growth-inhibition curve) (log10 M)
Procedure, shortened: (§1)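 A pin tool was used to add a 10-point threefold dilution series (mean top concentration 35 μM), in triplicate, to patient-derived pHGG/DIPG cell lines and astrocyte controls seeded on 384-well plates coated with 1% Geltrex. After 7 days at 37 °C and 5% CO2 (3 days for iAstro), CellTiter-Glo luminescence was log2-transformed, normalised on each plate to % activity relative to negative (solvent) and positive control wells, and pooled. EC50 and maximal response (yFin) were read from the three- or four-parameter log-logistic fit with the lowest AICc.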

[2] = tested on: HGGX39 (paediatric high-grade glioma line); assay: as above
Procedure, shortened: as §1

[3] = tested on: HGGX6 (H3.3 G34R paediatric high-grade glioma line); assay: as above
Procedure, shortened: as §1

[4] = tested on: DIPGX37; assay: maximal growth inhibition (yFin) relative to DMSO / staurosporine; higher = more efficacious
Procedure, shortened: as §1

[5] = tested on: HGGX39; assay: as above
Procedure, shortened: as §1

[6] = tested on: HGGX6; assay: as above
Procedure, shortened: as §1

[7] = tested on: DIPGX29 (H3.3 K27M diffuse intrinsic pontine glioma line); assay: area under dose-response curve of % growth inhibition (log2 RLU vs DMSO / staurosporine), 1e-11 to 1e-4 M (% x log10 M); higher = more growth inhibition
Procedure, shortened: (§2)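 A 10-point threefold dilution series, mean top concentration 35 μM, was applied in triplicate to patient-derived pHGG/DIPG lines and astrocytes on 1% Geltrex-coated 384-well plates for 7 days (3 days for iAstro) at 37 °C, 5% CO2. Per-plate % activity between solvent and positive controls was calculated from log2-transformed CellTiter-Glo luminescence. Area under the curve followed from the trapezoid rule on a log-logistic fit, or on a smoothing spline when the sigmoid fit failed.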

[8] = tested on: DIPGX37; assay: as above
Procedure, shortened: as §2

[9] = tested on: HGGX39; assay: as above
Procedure, shortened: as §2

[10] = tested on: HGGX6; assay: as above
Procedure, shortened: as §2

Row | Compound | EC50 (log10 M) [1] | EC50 (log10 M) [2] | EC50 (log10 M) [3] | maximal growth inhibition [4] [%] | maximal growth inhibition [5] [%] | maximal growth inhibition [6] [%] | area under dose-response curve [7] | area under dose-response curve [8] | area under dose-response curve [9] | area under dose-response curve [10]
1 | CCC(COC(=O)c1cc(OC)c(OC)c(OC)c1)(c1ccccc1)N(C)C (stereo not drawn) [TRIMEBUTINE] | -5.38 | -5.08 | -4.87 | 25.6 | 55.5 | 22.6 | 28.3 | 35.6 | 60.1 | 19.8
2 | CCc1c2c(nc3ccc(O)cc13)-c1cc3c(c(=O)n1C2)COC(=O)[C@]3(O)CC [SN-38] | -6.02 | -6.74 | -6.77 | 49 | 46.5 | 23.2 | 68.7 | 125 | 167 | 65.4
3 | Cc1ccc(C(=O)Nc2ccc(Oc3cc4cnn(C)c4cc3-c3cn[nH]c3)c(F)c2)c(=O)n1-c1ccc(F)cc1 | – | -5.27 | -5.1 | – | 20.9 | 25.3 | 22.4 | 16.1 | 28.1 | 41.1
4 | C[C@H]1[C@H](OC(=O)CCC(=O)O)O[C@@H]2O[C@@]3(C)CC[C@H]4[C@H](C)CC[C@@H]1[C@@]24OO3 [ARTESUNATE] | – | -4.94 | -5.03 | – | 32.5 | 22.2 | 8.84 | 9.88 | 29 | 23.5
5 | C#CCC(Cc1cnc2nc(N)nc(N)c2n1)c1ccc(C(=O)N[C@@H](CCC(=O)O)C(=O)O)cc1 (stereo partly drawn) [PRALATREXATE] | – | -8.55 | -7.84 | – | 25.5 | 22.1 | 66.7 | 73 | 116 | 83.2
6 | COc1cc2nccc(Oc3ccc(NC(=O)C4(C(=O)Nc5ccc(F)cc5)CC4)cc3)c2cc1OC [CABOZANTINIB] | – | -4.62 | -4.79 | – | 60.2 | 27.1 | 10.6 | 12.8 | 37.5 | 33
7 | CCC(C)(C)C(=O)O[C@H]1C[C@@H](C)C=C2C=C[C@H](C)[C@H](CC[C@@H]3C[C@@H](O)CC(=O)O3)[C@H]21 [SIMVASTATIN] | – | -4.94 | -5.07 | – | 53.9 | 22.6 | 29.8 | 39.1 | 63.6 | 24.4
8 | CC(=O)O[C@H]1C(=O)[C@@]2(C)[C@H]([C@H](OC(=O)c3ccccc3)[C@]3(O)C[C@H](OC(=O)[C@H](O)[C@@H](NC(=O)c4ccccc4)c4ccccc4)C(C)=C1C3(C)C)[C@]1(OC(C)=O)CO[C@@H]1C[C@@H]2O [PACLITAXEL] | -8.09 | -8.21 | – | 24.3 | 42.5 | – | 42.1 | 99.3 | 179 | 55.2
9 | Cc1sc2c(c1C)C(c1ccc(Cl)cc1)=N[C@@H](CC(N)=O)c1nnc(C)n1-2 [CPI-203] | -6.88 | – | – | 22.3 | – | – | 26.8 | 62.1 | 47.1 | 35.8
10 | CC(C)c1c(C(=O)Nc2ccccc2)c(-c2ccccc2)c(-c2ccc(F)cc2)n1CC[C@@H](O)C[C@@H](O)CC(=O)O [ATORVASTATIN] | -6.26 | -5.24 | -4.88 | 22 | 84.1 | 55.1 | 48 | 66.2 | 108 | 55.5
11 | c1ccc(-c2ccc(C(c3ccccc3)n3ccnc3)cc2)cc1 (stereo not drawn) [BIFONAZOLE] | -4.75 | – | -4.81 | 42.4 | – | 20.1 | 17.3 | 31.9 | 30.5 | 16.4
12 | Cc1sc2c(c1C)C(c1ccc(Cl)cc1)=N[C@@H](CC(=O)Nc1ccc(O)cc1)c1nnc(C)n1-2 [OTX015] | -6.7 | -5.11 | – | 29.5 | 50.6 | – | 30.3 | 80 | 53.1 | 33.7
13 | CC[C@H](C)C(=O)O[C@H]1C[C@@H](C)C=C2C=C[C@H](C)[C@H](CC[C@@H]3C[C@@H](O)CC(=O)O3)[C@H]21 [LOVASTATIN] | -5.76 | -5.37 | -5.49 | 23.7 | 68 | 21.5 | 29.8 | 36.7 | 94.8 | 29.1
14 | O=C(NCC1(c2nc(-c3ccccc3)cs2)CCOCC1)c1cccc(-c2noc(C(F)(F)F)n2)c1 [TMP269] | -4.89 | -4.9 | -4.93 | 44.2 | 25.1 | 21 | 28 | 53.7 | 22.7 | 27.4
15 | Nc1nc(Cl)nc2c1ncn2[C@@H]1O[C@H](CO)[C@@H](O)[C@@H]1F [CLOFARABINE] | -5.4 | – | -5.65 | 28.4 | – | 22.7 | 52.4 | 47 | 44.4 | 40.9
16 | C[C@@H]1CC[C@H]2[C@@H](C)C(=O)O[C@@H]3O[C@@]4(C)CC[C@@H]1[C@]32OO4 [ARTEMISININ] | -5.3 | -5.38 | – | 32.7 | 29.7 | – | 19.7 | 42.5 | 36.8 | 20.9
17 | CC/C(=C(\c1ccccc1)c1ccc(OCCN(C)C)cc1)c1ccccc1 [TAMOXIFEN] | -4.61 | – | – | 64.9 | – | – | 8.96 | 50.8 | 8.92 | 12.2
18 | CC(C)n1c(/C=C/C(O)CC(O)CC(=O)O)c(-c2ccc(F)cc2)c2ccccc21 (stereo not drawn) [FLUVASTATIN] | – | -6.08 | -5.92 | – | 23.9 | 26.8 | 25.5 | 1.43 | 51.2 | 54

Row | Compound | EC50 (log10 M) [1] | EC50 (log10 M) [2] | EC50 (log10 M) [3] | maximal growth inhibition [4] [%] | maximal growth inhibition [5] [%] | maximal growth inhibition [6] [%] | area under dose-response curve [7] | area under dose-response curve [8] | area under dose-response curve [9] | area under dose-response curve [10]
19 | CC[C@H](C)C(=O)O[C@H]1CCC=C2C=C[C@H](C)[C@H](CC[C@@H]3C[C@@H](O)CC(=O)O3)[C@H]21 [MEVASTATIN] | -5.53 | -4.97 | – | 20.8 | 57.7 | – | 32.6 | 41.4 | 56.7 | 23.3
20 | Cc1cc(=O)n(C)c2cc(N3C(=O)CC[C@H](NS(=O)(=O)CC(C)C)[C@H]3c3ccc(Cl)cc3)ccc12 [LP-99] | – | – | -4.95 | – | – | 22.4 | 12.9 | 10.2 | 11.5 | 21.2
21 | O=C(/C=C\n1cnc(-c2cc(C(F)(F)F)cc(C(F)(F)F)c2)n1)NNc1cnccn1 [SELINEXOR] | – | -6.06 | -5.23 | – | 96.2 | 101 | 144 | 169 | 195 | 205
22 | CCCCOc1cc(C(=O)OCCN(CC)CC)ccc1N [OXYBUPROCAINE] | – | -4.97 | -5.11 | – | 67.2 | 26.6 | 11.5 | 16.5 | 65.7 | 29.7
23 | CC(=O)OC12COC1CC(O)C1(C)C(=O)C(O)C3=C(C)C(O)CC(O)(C(OC(=O)c4ccccc4)C21)C3(C)C (stereo not drawn) [10-DEACETYLBACCATIN-III] | -4.92 | -5.19 | – | 31.4 | 39.6 | – | 13.6 | 28.9 | 47.3 | 14.9
24 | Cc1c(N)nc([C@H](CC(N)=O)NC[C@H](N)C(N)=O)nc1C(=O)N[C@H](C(=O)N[C@H](C)[C@@H](O)[C@H](C)C(=O)N[C@H](C(=O)NCCc1nc(-c2nc(C(=O)NCCC[S+](C)C)cs2)cs1)[C@@H](C)O)[C@@H](OC1OC(CO)C(O)C(O)C1OC1OC(CO)C(O)C(OC(N)=O)C1O)c1cnc[nH]1 (stereo partly drawn) [BLEOMYCIN] | -5.22 | – | – | 24.8 | – | – | 22.6 | 40.4 | 19.5 | 6.9
25 | Nc1nccc(-c2c(-c3ccc(F)cc3)ncn2C2CCCCC2)n1 | – | – | -4.94 | – | – | 21 | 16.4 | 21.5 | 21.3 | 31.7
26 | CC(C)c1nc(N(C)S(C)(=O)=O)nc(-c2ccc(F)cc2)c1/C=C/[C@@H](O)C[C@@H](O)CC(=O)O [ROSUVASTATIN] | -5.85 | -5.45 | -5.54 | 22.7 | 61.4 | 21.2 | 25.2 | 37.5 | 83.4 | 30.4
27 | CO[C@H]1C[C@@H]2CC[C@@H](C)[C@@](O)(O2)C(=O)C(=O)N2CCCC[C@H]2C(=O)O[C@H]([C@H](C)C[C@@H]2CC[C@@H](O)[C@H](OC)C2)CC(=O)[C@H](C)/C=C(\C)[C@@H](O)[C@@H](OC)C(=O)[C@H](C)C[C@H](C)/C=C/C=C/C=C/1C [SIROLIMUS] | -4.68 | – | – | 67.7 | – | – | 47.3 | 59.1 | 58.5 | 62.6
28 | COc1cc(Nc2ncc3c(n2)-c2ccc(Cl)cc2C(c2c(F)cccc2OC)=NC3)ccc1C(=O)O [ALISERTIB] | – | -4.99 | -5.31 | – | 39.1 | 24.7 | 52.1 | 66.4 | 69.3 | 49.8
29 | CCCCOc1ccc(OCCCN2CCOCC2)cc1 [PRAMOXINE] | -4.83 | -4.82 | -4.97 | 55.5 | 77 | 23.9 | 17.3 | 46.2 | 70.5 | 23.2
30 | CC(C)(C)C(=O)OCOP(=O)(COCCn1cnc2c(N)ncnc21)OCOC(=O)C(C)(C)C [ADEFOVIR DIPIVOXIL] | -5.54 | -5.71 | -5.06 | 34.3 | 21.4 | 20.9 | 25.6 | 53.7 | 36.5 | 22.2
31 | N[C@@H](Cc1cc(I)c(Oc2ccc(O)c(I)c2)c(I)c1)C(=O)O [LIOTHYRONINE] | -5.69 | -5.95 | – | 26.5 | 26.4 | – | 31.4 | 62.2 | 51.4 | 11.9
32 | Nc1cc(F)ccc1NC(=O)/C=C/c1cnn(C/C=C/c2ccccc2)c1 [RGFP966] | -4.62 | – | – | 68.6 | – | – | 17.1 | 66.1 | 13.5 | 12.3
33 | N#CC[C@H](C1CCCC1)n1cc(-c2ncnc3[nH]ccc23)cn1 [RUXOLITINIB] | – | -5.58 | -5.22 | – | 27.7 | 21.7 | 24.4 | 44.2 | 44.9 | 28.9
34 | Clc1cc2c(NC3CCCC3)nnc(-c3ccncc3)c2cc1Cl [A-196] | -4.53 | – | – | 23.4 | – | – | 2.12 | 18.8 | 2.32 | 3.18
35 | CCc1c2c(nc3ccc(OC(=O)N4CCC(N5CCCCC5)CC4)cc13)-c1cc3c(c(=O)n1C2)COC(=O)[C@]3(O)CC [IRINOTECAN] | -7.09 | -5.98 | – | 20.5 | 53.2 | – | 52.4 | 56.4 | 107 | 25.9
36 | C/C=C(\C)C(=O)N[C@@H](c1ccccc1)[C@@H](O)C(=O)O[C@H]1C[C@@]2(O)[C@@H](OC(=O)c3ccccc3)[C@@H]3[C@]4(OC(C)=O)CO[C@@H]4C[C@H](O)[C@@]3(C)C(=O)[C@H](OC(C)=O)C(=C1C)C2(C)C [CEPHALOMANNINE] | -7.58 | -7.73 | – | 28.2 | 48.4 | – | 46.7 | 101 | 180 | 54.1
